Experiments:
ATG4B [1] = target: T1, ATG4B (Homo sapiens, UniProt Q9Y4P1); test: Fluorimetric ATG4B enzymatic assay with fluorescent peptide substrate pim-FG-PABA-AMC; type: biochemical; details: for IC50: pim-FG-PABA-AMC substrate, read-out: IC50, fluorimetric assay with fluorogenic peptide substrate
T1 sequence (Q9Y4P1 1-393): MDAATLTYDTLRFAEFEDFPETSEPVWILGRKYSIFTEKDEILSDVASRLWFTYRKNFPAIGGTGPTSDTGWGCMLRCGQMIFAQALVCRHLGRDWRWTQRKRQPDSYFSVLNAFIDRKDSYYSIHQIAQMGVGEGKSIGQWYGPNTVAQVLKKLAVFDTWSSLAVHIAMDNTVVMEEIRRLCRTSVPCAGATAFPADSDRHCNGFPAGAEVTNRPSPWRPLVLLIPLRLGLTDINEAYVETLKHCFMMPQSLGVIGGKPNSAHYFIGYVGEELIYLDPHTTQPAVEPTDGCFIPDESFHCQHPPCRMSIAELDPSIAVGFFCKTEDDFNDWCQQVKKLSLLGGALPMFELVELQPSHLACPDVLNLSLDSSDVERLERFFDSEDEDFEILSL
Protocol: 100 μL of immobilized TCEP in deionized water was diluted in 2.50 mL of buffer (50 mM Tris, 35 mM NaCl, pH = 8). The sample was centrifuged at 10,000 × g during 1 min. The supernatant was removed. This operation was done two more times. […] The solution was incubated on a carousel at 4 °C for 1 h. This solution was then diluted with 2.06 mL of buffer (50 mM Tris, 35 mM NaCl, 5 mM EDTA, pH 8), centrifuged at 10,000 × g during 1 min and the supernatant, containing the activated ATG4B (1 µM), was kept. A 96-well all-black plate was loaded where each well was charged with 55 µL of inhibitor at different concentrations (0 µM to 100 µM or 200 µM) in buffer/DMSO 41:3 (v/v) and 20 μL of enzyme or buffer were dispensed using a dispenser (Biotek). Plate was incubated for 30 min. A single read was done using excitation and emission wavelengths of 350/450 nm. 25 µL of peptide substrate (pim-FG-PABA-AMC)[52] (final assay concentration 100 µM) was dispensed using a dispenser (Biotek). Experiments were performed in triplicate except when it is mentioned. Fluorescent reads were performed using the Synergy 4 (Biotek) at 25 °C using excitation and emission wavelengths of 350/450 nm every 15 min for 2 h.

SKBR3-hrGFP-LC3B cells = test: High content screening of GFP-LC3B puncta; type: cell-based; details: 100 nM, 1 µM, 10 µM; 6 h and 24 h
Source text: One hundred of the predicted best binding ATG4B inhibitors were obtained to test for effects on GFP-LC3B puncta levels in SKBR3-hrGFP-LC3B breast cancer cells cultured in standard fed conditions. Based on our observations using ATG4B-siRNAs (Figs 2a,b and S1) and several reports in the literature[22]–[24], we expected that reduced ATG4B function would primarily affect LC3B-II recycling and lead to an increase in GFP-LC3B puncta, whereas complete loss of ATG4B would also affect pro-LC3B processing and lead to a decrease in GFP-LC3B puncta formation. Compounds were initially tested at three concentrations (100 nM, 1 µM and 10 µM) and two treatment periods (6 hour and 24 hour). In parallel, all compounds were tested at a single concentration (8 µM) in a FRET-LC3 ATG4B enzymatic assay developed in our group. […] Calculations predicted that compound 1–4 bound to closed binding site#1 (Fig. S2) while 2–22 and 3–22 bound to open site#2 (Fig. S3) and 4–6 and 4–28 bound to closed site#2 (Figs S4 and S5). Of these, compounds 1–4 and 4–6 are biphenols which are potentially metabolically unstable by oxidation, sulfation and glucuronidation pathways. Compound 2–22 and 3–22 have electrophilic sites, which are drawbacks for drug development as they are prone to metabolic transformation and could lead to covalent bond formation with biological nucleophiles. […] It was nonetheless selected for further follow-up based on its favorable structural characteristics and resemblance to the known drugs and lysosomal-related autophagy inhibitors, chloroquine and hydroxychloroquine, and to the styrylquinoline, MK-571, a selective antagonist of leukotriene D4 known to have an excellent pharmacokinetic profile in terms of oral bioavailability and long duration of action.
High-throughput fluorescence microscopy was performed at room-temperature on the InCell Analyzer 1000 (GE Healthcare) using the 20X objective to view Hoescht 33342 nuclear stain, ethidium homodimer (EthD1) viability stain and GFP-LC3 puncta in SKBR3-hrGFP-LC3B cells. Thirty min prior to imaging, cells were incubated at 37 °C with 4 µM Hoechst 33342 (Invitrogen) and 0.5 µM EthD1 (Invitrogen). Image analysis was performed using InCell Developer Toolbox (Ver. 1.6, GE Healthcare). Individual cells were identified with segmentation of nuclei based on Hoechst 33342 staining. Cell borders were determined by defining a radius around the nucleus. Cells were classified as “dead” if the defined cell overlapped by at least 50% with the EthD1 signal. The number of GFP-LC3 puncta within each live cell was then counted, as well as the number of live cells with at least 5 puncta. Puncta were defined as GFP positive structures of at least 1 pixel with a form factor (estimate of circularity) of at least 0.4.

ATG4B [2] = target: T1, ATG4B; test: Mass spectrometry ATG4B enzymatic assay with GFP-LC3-YFP substrate
Protocol: The sample was centrifuged at 10000 × g during 1 min. The supernatant was removed. This operation was done two more times. […] 15 µL of this ATG4B solution were mixed with the 20 µL rinsed immobilized TCEP solution. The solution was incubated on a carousel at 4 °C for 1 h. […] Kinetic determination was performed in triplicate in 1 dram HPLC vials using 350 µL glass inserts. […] The analysis of the m/z distribution signal resulting from the protein substrate was performed by Agilent MassHunter Workstation software elucidating proteins 20000–80000 Da between 700 m/z and 1800 m/z. […] The amount of cleavage was determined by calculating the value of the formula A/(A + B) where A was the peak height of the 27885 Da residue and B was the peak height of the 72904 Da residue. Each experiment was assessed with a concomitant parallel negative control.

[3] = Stability of 4-28 under irradiation, HPLC analysis; type: physicochemical
Source text: 4–28 is a 4-aminostyrylquinoline, a structural class known to be photo-reactive[51]. In preliminary assays under standard conditions with the reducing agent TCEP present, we noted the formation of isomers and adducts between 4–28 and TCEP (Fig. 3b). Thus, to confirm the ability of 4–28 to inhibit ATG4B activity, we used a mass spectrometry assay using a GFP-LC3-YFP substrate[36] and by using activation of the enzyme with TCEP on solid support, which can be easily removed after the activation and prior to incubation with the inhibitor. […] (Fig. 3d). […] By these two assays, we confirmed the ability of 4–28 to inhibit ATG4B catalytic activity.
In our case, with incubation of 4–28 for 1 h under UV-irradiation, the formation of the cis compound was observed by HPLC and ^1H NMR along with other compounds consistent with further electrocyclization (Figs 3b and S6 and S7). Given these observed instabilities and reactivity, a structure-activity relationship study was initiated with an aim to identify an analog with improved stability and enhanced potency against ATG4B and with a pharmacokinetic profile suitable to support in vivo testing.

MCF7 cells = test: LC3B-based autophagy flux assay (western blot) in MCF7 cells; type: cell-based; details: with and without bafilomycin A1
Source text: While the effects observed were modest, this observation is consistent with reduced LC3B-II recycling and reduced autophagic flux.

ATG4B [4] = target: T1, ATG4B; test: FRET-LC3 ATG4B enzymatic assay; type: biochemical; details: read-out: inhibition in the screening FRET assay

| Structure (SMILES) | effect on GFP-LC3 puncta in primary screen (SKBR3-hrGFP-LC3B cells) | IC50 (ATG4B [1]) [µM] | further results |
| --- | --- | --- | --- |
| CCN(CCO)CCCC(C)Nc1ccnc2cc(Cl)ccc12 (stereo not shown) [hydroxychloroquine, reference compound] |  |  | inhibition of activity of purified ATG4B (ATG4B [1]; up to 200 µM): did not show significant inhibition |
| COc1cccc(NC(=O)C(=O)C(C(=O)c2ccccc2F)C2OC(=O)c3ccccc32)c1 (stereo not shown) [2–22] | increase in GFP-LC3 puncta |  |  |
| CCCCN(CCC(=O)O)c1ccc(/C=C/c2ccnc3ccccc23)cc1 [4–28] | decrease in GFP-LC3 puncta | 79 ± 9 | IC50 (ATG4B [2]): 116 ± 14 µM; cis-isomer formed under assay conditions ([3]; 1 irradiation at 350 nm each 15 min for 2 h): 4%; stability under UV irradiation ([3]; 1 h UV irradiation, HPLC and 1H NMR): instability under UV irradiation; endogenous LC3B-II (MCF7 cells): accumulation of LC3B-II that was not additive to bafilomycin A1; inhibition at 8 µM (ATG4B [4]): 43% |
| CCOC(=O)CCSC(SCCC(=O)OCC)c1ccc(/C=C/c2ccnc3cc(Cl)ccc23)cc1 [Compound 68] |  | > 100 |  |
| Cc1cc(Cc2cc(C)c(O)c(CO)c2)cc(CO)c1O [1–4] | increase in GFP-LC3 puncta |  |  |
| O=C(Nc1ccc([N+](=O)[O-])cc1)C(=O)C(C(=O)c1ccccc1F)C1OC(=O)c2ccccc21 (stereo not shown) [3–22] | increase in GFP-LC3 puncta |  |  |
| C=CCSC(SCC=C)c1ccc(/C=C/c2ccnc3cc(Cl)ccc23)cc1 [Compound 69] |  | > 100 |  |

From paper PMC6076261, “A new quinoline-based chemical probe inhibits the autophagy-related cysteine protease ATG4B” (Scientific Reports, 2018)
